# Where two headings read alike, the source gives them in different places.
# What was measured:
# A375 melanoma = test: in vitro cytotoxicity (antiproliferative activity) on A375 melanoma line; type: cell-based, human; details: for activity compared with EAPB0203: A375, comparing IC50 values of Table 3
# Source text: Antiproliferative activity was first measured on a cancer cell line of human origin, A375 melanoma.
# Imiquimod and fotemustine (Muphoran®) are used as controls in this study.
# (§1) Several human carcinoma cell lines were used: • Lines A375, M4Be, RPMI7591 from human melanoma. • Line LS174T from colon carcinoma. • Line A 2780 from ovarian carcinoma. • The Raji line from B lymphoma. • Line MCF7 from breast carcinoma.
# IC50 (concentration of the product tested which inhibits 50% of the maximum cell proliferation observed in the control wells) is determined graphically from the curve of the percentage of cell proliferation as a function of concentration of the product tested.
# Raji (B lymphoma) = test: in vitro cytotoxicity on Raji B lymphoma line; type: cell-based, human; details: Table 2, unit inferred
# Source text: as §1
# in vivo = details: rat
# Method: (§2) Methods of assaying compounds EAPB0203, EAPB0503 and EAPB0603 by high performance liquid chromatography and detection by mass spectrometry (LC/ESI-MS) were developed and validated in human and rat plasmas. Pre-treatment of the samples consists of a liquid solid extraction preceded by precipitation of plasma proteins in acid medium. The chromatographic column used is C8 Zorbax eclipse XDB and the mobile phase (gradient) a mixture of acetonitrile and formate buffer (pH 3) (flow rate, 0.8 ml/min). The […] from 92 to 113%. The extraction coefficients are higher than 72%. The quantification limit is 5 μg/l for all analytes. Stability tests of the compounds in the matrices were also carried out. These methods were used to determine the pharmacokinetic parameters of compounds EAPB0203, EAPB0503 and EAPB0603 in the rat. The lethal doses 50% of compounds EAPB0203 and EAPB0503 are respectively 14.8 and 7.6 mg/kg.
# M4Be (melanoma) = test: in vitro cytotoxicity on M4Be melanoma line; type: cell-based; details: Homo sapiens, read-out: IC50 M4Be
# Source text: as §1
# LS174T (colon cancer) = test: in vitro cytotoxicity on LS174T colon cancer line; type: cell-based; details: Homo sapiens, Table 2, unit inferred
# Source text: as §1
# RPMI7591 (melanoma) = test: in vitro cytotoxicity on RPMI7591 melanoma line; type: cell-based; details: Homo sapiens, read-out: IC50 RPMI7591
# Source text: as §1
# MCF7 (breast cancer) = test: in vitro cytotoxicity on MCF7 breast cancer line; type: cell-based; details: Homo sapiens, Table 2, unit inferred
# Source text: as §1
# [1] = lethal doses 50% reported in the pharmacokinetic study; type: in vivo; details: species and route not stated in the sentence (rat study)
# Method: as §2
# M4Be human melanoma = test: anti-proliferative activity in vivo, M4Be human melanoma xenografted in athymic mice; details: 20 mg/kg once per week i.p.; sacrifice at tumour volume 2 cm^3
# Method: FIG. 1: Effects of fotemustine (20 mg/kg once per week for 3 weeks) and EAPB0203 (20 mg/kg twice per week for 3 weeks) on tumour growth in athymic Swiss mice xenografted with M4Be human melanoma cell line.
# Δ, control; ▪, EAPB0203; ●, fotemustine. The data are the results of only one experiment carried out on six mice per group. The results are represented as mean±SEM.
# In this study, data are presented relating to the activity of EAPB0203 on the volume of a type of human melanoma tumour model (M4Be lines), xenografted in athymic mice. This study required as a preliminary step several tests of grafts of human melanoma cell lines in athymic mice before establishing the adequate animal model. The in vivo study was performed following the in vitro experiments described previously.
# The activity and specificity of EAPB0203 in vivo on tumour growth of human melanoma are evaluated by monitoring tumour development in mice carrying M4Be melanoma treated by administration of fotemustine and EAPB0203 at various doses.
# For this study, 18 Swiss nude mice (3 groups of 6 mice) were used. M4Be cancer cells in suspension were injected subcutaneously into the right flank of each athymic Swiss nude female 7-week-old mouse weighing 20-22 g at the beginning of the protocol. The mice were then maintained in a sterile atmosphere and received aseptic food and water. The weight of the mouse and the growth of the tumour in three dimensions were recorded twice a week.
# A first group of 6 mice (reference) will receive fotemustine by intra-peritoneal route at a dose of 20 mg/kg once per week for 3 weeks, beginning 7 days after inoculation at the time when the tumour will be visible and palpable. A second group of 6 mice will receive EAPB0203 at the same dose of 20 mg/kg via intra-peritoneal route but twice per week (40 mg/kg per week). The third group (control) of 6 mice will receive only the administration carrier. Tumour volume is calculated by the following formula: length X width X height X 0.52, and is expressed as mean±SEM mm^3.
# For fotemustine and EAPB0203, the sequence of administrations is a treatment of three weeks, then two weeks without treatment, and then a second treatment of three weeks.
# [2] = Homo sapiens, A-375, A375 melanoma line, Table 1, IC50 and standard deviation, read-out: IC50
# [3] = Homo sapiens, A-375, A375, Table 3, read-out: IC50
# [4] = A375, comparison of IC50 values
molecule,measurement,setting,value
"CC(C)Cc1cnc2c(N(C)C)nc3ccccc3n12 [EAPB0104, 1-Isobutyl-N,N-dimethylimidazo[1,2-a]quinoxalin-4-amine]",IC50,A375 melanoma; [2],66.3 ± 7.5 µM
"CN(Cc1cnc2nc(N)nc(N)c2n1)c1ccc(C(=O)N[C@@H](CCC(=O)O)C(=O)O)cc1 [Methothrexate, methothrexate]",IC50,Raji (B lymphoma),0.04 ± 0.005 µM
"CNc1nc2ccccc2n2c(-c3cccc([N+](=O)[O-])c3)cnc12 [EAPB01603, 1-(3-nitrophenyl)-N-methylimidazo[1,2-a]quinoxalin-4-amine]",IC50,A375 melanoma; [3],40 ± 3.9 µM
"1-furan-N-methylimidazo[1,2-a]quinoxalin-4-amine [EAPB01703]",IC50,"A375 melanoma; A375, Table 3, read-out: IC50",74.1 ± 3.1 µM
"Clc1nc2ccccc2n2c(CCc3ccccc3)cnc12 [EAPB0201, 4-Chloro-1-(2-phenylethyl)imidazo[1,2-a]quinoxaline]",IC50,A375 melanoma; [2],24 ± 0.5 µM
"CNc1nc2ccccc2n2c(-c3cccc(Cl)c3)cnc12 [EAPB01203, 1-(3-chlorophenyl)-N-methylimidazo[1,2-a]quinoxalin-4-amine]",IC50,A375 melanoma; [3],1.78 ± 0.35 µM
"CNc1nc2ccccc2n2c(-c3cccc(C(=O)O)c3)cnc12 [EAPB01303, 1-(3-carboxyphenyl)-N-methylimidazo[1,2-a]quinoxalin-4-amine]",IC50,A375 melanoma; [3],3.47 ± 0.55 µM
"CNc1nc2ccccc2n2c(-c3cccc(F)c3)cnc12 [EAPB01403, 1-(3-fluorophenyl)-N-methylimidazo[1,2-a]quinoxalin-4-amine]",IC50,A375 melanoma; [3],24.9 ± 0.27 µM
"CNc1nc2ccccc2n2c(-c3cccc(O)c3)cnc12 [EAPB0603, 1-(3-hydroxyphenyl)-N-methylimidazo[1,2-a]quinoxalin-4-amine]",activity compared with EAPB0203,A375 melanoma,higher than that of EAPB0203
same,IC50,A375 melanoma; [3],0.56 ± 0.12 µM
same,metabolic relation,in vivo,active metabolite of EAPB0503
same,elimination half-life (metabolite),"in vivo; iv, 5 mg/kg",4.7 h
"COc1nc2ccccc2n2c(CCc3ccccc3)cnc12 [EAPB0206, 4-Methoxy-1-(2-phenylethyl)imidazo[1,2-a]quinoxaline]",IC50,A375 melanoma; [2],47.8 ± 5 µM
"CC(C)Cn1cnc2c(N)nc3ccccc3c21 [Imiquimod, imiquimod]",IC50,"M4Be (melanoma); Table 2, unit inferred",33.5 ± 7.7 µM
same,IC50,LS174T (colon cancer),34.4 ± 9.7 µM
same,IC50,"A375 melanoma; Homo sapiens, A-375, Table 2, unit inferred, read-out: IC50 A375",70.3 ± 4.3 µM
same,IC50,"Raji (B lymphoma); Homo sapiens, Raji",139 ± 12 µM
same,IC50,"RPMI7591 (melanoma); Table 2, unit inferred",53.7 ± 9.8 µM
same,IC50,MCF7 (breast cancer),145 ± 7 µM
"CNc1nc2ccccc2n2c(-c3cccc(OC)c3)cnc12 [EAPB0503, 1-(3-methoxyphenyl)-N-methylimidazo[1,2-a]quinoxalin-4-amine]",activity compared with EAPB0203,A375 melanoma,higher than that of EAPB0203
same,IC50,A375 melanoma; [3],0.18 ± 0.09 µM
same,Vd,"in vivo; iv, 5 mg/kg",5.6 L/kg
same,area under the curve of plasma concentrations,"in vivo; iv, 5 mg/kg",2310 ng·h/mL
same,clearance,"in vivo; iv, 5 mg/kg",36.7 mL/min/kg
same,half-life,"in vivo; iv, 5 mg/kg",1.76 h
same,lethal doses 50%,[1],7.6 mg/kg
"CCc1c2c(nc3ccc(OC(=O)N4CCC(N5CCCCC5)CC4)cc13)-c1cc3c(c(=O)n1C2)COC(=O)[C@]3(O)CC [Irinotecan, irinotecan]",IC50,LS174T (colon cancer),1.16 ± 0.07 µM
"Nc1nc2ccccc2n2c(CCc3ccccc3)cnc12 [EAPB0202, 1-(2-phenylethyl)imidazo[1,2-a]quinoxalin-4-amine]",activity times higher than that of fotemustine,A375 melanoma; [4],70 times
same,activity times higher than that of imiquimod,A375 melanoma; [4],30 times
same,times more active than EAPB0204,A375 melanoma; [4],~2 times
same,IC50,A375 melanoma; [2],2.35 µM
"CCOP(=O)(OCC)C(C)NC(=O)N(CCCl)N=O (stereo not drawn) [Fotemustine, fotemustine, reference compound]",IC50,M4Be (melanoma),326 ± 34 µM
same,IC50,"A375 melanoma; Homo sapiens, A-375, read-out: IC50 A375",173 ± 24 µM
same,day on which the last mice were euthanatized,M4Be human melanoma,76 days
same,IC50,RPMI7591 (melanoma),125 ± 49 µM
"CN(C)c1nc2ccccc2n2c(CCc3ccccc3)cnc12 [EAPB0204, N,N-Dimethyl-1-(2-phenylethyl)imidazo[1,2-a]quinoxalin-4-amine]",IC50,A375 melanoma; [2],80.1 ± 7 µM
"CNc1nc2ccccc2n2c(CC(C)C)cnc12 [EAPB0103, 1-Isobutyl-N-methylimidazo[1,2-a]quinoxalin-4-amine]",IC50,A375 melanoma; [2],31.6 ± 2 µM
"COc1cccc2c1C(=O)c1c(O)c3c(c(O)c1C2=O)C[C@@](O)(C(=O)CO)C[C@@H]3O[C@H]1C[C@H](N)[C@H](O)[C@H](C)O1 [Doxorubicine, doxorubicin]",IC50,MCF7 (breast cancer),0.13 ± 0.01 µM
"CCOc1cccc(-c2cnc3c(NC)nc4ccccc4n23)c1 [EAPB0903, 1-(3-ethoxyphenyl)-N-methylimidazo[1,2-a]quinoxalin-4-amine]",activity compared with EAPB0203,A375 melanoma,higher than that of EAPB0203
same,IC50,A375 melanoma; [3],0.3 ± 0.01 µM
"CNc1nc2ccccc2n2c(-c3ccc(OC)cc3)cnc12 [EAPB0703, 1-(4-methoxyphenyl)-N-methylimidazo[1,2-a]quinoxalin-4-amine]",activity compared with EAPB0203,A375 melanoma,higher than that of EAPB0203
same,IC50,A375 melanoma; [3],0.37 ± 0.4 µM
"CNc1nc2ccccc2n2c(-c3ccccc3)cnc12 [EAPB0403, N-methyl-1-phenylimidazo[1,2-a]quinoxalin-4-amine]",IC50,A375 melanoma; [3],2.19 ± 0.08 µM
"CNc1nc2ccccc2n2cc(-c3cccc(OC)c3)nc12 [N-methyl-2-(3-methoxyphenyl)imidazo[1,2-a]quinoxalin-4-amine]",activity times higher than EAPB0203,A375 melanoma; A375,100 times
same,activity times higher than that of EAPB0503,A375 melanoma; A375,10 times
same,IC50,"A375 melanoma; Homo sapiens, A-375, melanoma (A375), text b219, read-out: IC50",0.018 µM
"CNc1nc2ccccc2n2c(-c3cccc(C#N)c3)cnc12 [EAPB01503, 1-(3-cyanophenyl)-N-methylimidazo[1,2-a]quinoxalin-4-amine]",IC50,A375 melanoma; [3],27 ± 2.2 µM
"CNc1nc2ccccc2n2c(-c3cccc(Br)c3)cnc12 [EAPB01003, 1-(3-bromophenyl)-N-methylimidazo[1,2-a]quinoxalin-4-amine]",activity compared with EAPB0203,A375 melanoma,higher than that of EAPB0203
same,IC50,A375 melanoma; [3],0.65 ± 0.02 µM
"CNc1nc2ccccc2n2c(-c3ccccc3OC)cnc12 [EAPB0803, 1-(2-methoxyphenyl)-N-methylimidazo[1,2-a]quinoxalin-4-amine]",IC50,A375 melanoma; [3],122 ± 25 µM
CNc1nc2ccccc2n2c(-c3cccc(C(F)(F)F)c3)cnc12 [EAPB01103],IC50,"A375 melanoma; A375, Table 3, read-out: IC50",1.28 ± 0.18 µM

# Source: patent US8378098B2, “Imidazol[1,2-α]quinoxalines and derivatives for the treatment of cancers” (Universite de Montpellier I, priority 2007, dated 2013)
